Test results: ChEMBL document CHEMBL4334480, “Anti-inflammatory Ellagitannins from Cleidion brevipetiolatum for the Treatment of Rheumatoid Arthritis” (J Nat Prod, 2019)
One block for each compound: values may come before it. The source made the active and inactive calls. No cut-off for these calls is given here.

Assays:
[1] = test system: RAW264.7; assay: Anti-inflammatory activity in mouse RAW264.7 cells assessed as inhibition of LPS-induced nitric oxide production preincubated for 2 hrs followed by LPS stimulation and measured after 24 hrs by Griess assay; format: functional, cell-based
[2] = test system: RAW264.7; assay: Cytotoxicity against mouse RAW264.7 cells after 24 hrs by MTT assay; format: cell-based; settings: raw264.7, 24 h
[3] = test system: Mus musculus; assay: Antiinflammatory activity against carrageenan-induced paw oedema in ICR mouse assessed as inhibition of paw edema at 20 mg/kg, po administered 30 mins prior to carrageenan challenge after 5 hrs post carrageenan challenge; format: functional, organism-based
[4] = test system: Mus musculus; assay: Antiinflammatory activity against carrageenan-induced paw oedema in ICR mouse assessed as reduction in NO level in serum at 20 mg/kg, po administered 30 mins prior to carrageenan challenge after 5 hrs post carrageenan; format: functional, organism-based
[5] = test system: Mus musculus; assay: Antiinflammatory activity against carrageenan-induced paw oedema in ICR mouse assessed as inhibition of paw edema at 20 mg/kg, po administered 30 mins prior to carrageenan challenge measured at 2 hrs post carrageenan challenge relative to control; format: functional
[6] = biological target: Transcription factor p65 (Mus musculus) (UniProt Q04207); assay: Inhibition of LPS-induced NFkappaB p65 nuclear translocation in mouse RAW264.7 cells at 5 to 50 uM preincubated for 2 hrs followed by LPS-stimulation after 22 hrs by Western blot analysis; format: cell-based
[7] = test system: Mus musculus; assay: Antiinflammatory activity against carrageenan-induced paw oedema in ICR mouse assessed as inhibition of paw edema at 50 mg/kg, po administered 30 mins prior to carrageenan challenge after 5 hrs post carrageenan challenge; format: functional, organism-based
[8] = test system: RAW264.7; assay: Antiinflammatory activity against mouse RAW264.7 cells assessed as reduction in LPS-induced iNOS protein expression compound preincubated for 2 hrs followed by LPS stimulation after 22 hrs by Western blot analysis; format: functional, cell-based
[9] = Toxicity in DBA/1J mouse assessed as effect on behavioral changes at 50 mg/kg, po; format: organism-based; settings: in vivo
[10] = biological target: MAP kinase p38 (Mus musculus) (UniProt P47811+O08911+Q9WUI1+Q9Z1B7); assay: Inhibition of LPS-induced P38 phosphorylation in mouse RAW264.7 cells at 5 to 50 uM preincubated for 2 hrs followed by LPS-stimulation after 22 hrs by Western blot analysis; format: cell-based
[11] = test system: RAW264.7; assay: Antiinflammatory activity against mouse RAW264.7 cells assessed as reduction in LPS-induced Cox2 mRNA expression compound preincubated for 2 hrs followed by LPS stimulation after 22 hrs by RT-PCR analysis; format: functional, cell-based
[12] = test system: Mus musculus; assay: Antiarthritic activity in collagen-induced rheumatoid arthritis DBA/1J mouse model assessed as reduction in hindlimb swelling at 50 mg/kg, po; format: functional, organism-based
[13] = Toxicity in DBA/1J mouse assessed as effect on body weight at 50 mg/kg, po; format: organism-based; settings: in vivo
[14] = test system: Mus musculus; assay: Antiinflammatory activity against carrageenan-induced paw oedema in ICR mouse assessed as reduction in NO level in serum at 50 mg/kg, po administered 30 mins prior to carrageenan challenge after 5 hrs post carrageenan; format: functional, organism-based
[15] = test system: Mus musculus; assay: Antiinflammatory activity against carrageenan-induced paw edema in ICR mouse assessed as inhibition of paw edema at 50 mg/kg, po administered 30 mins prior to carrageenan challenge measured at 2 hrs post carrageenan challenge relative to control; format: functional
[16] = test system: Mus musculus; assay: Antiarthritic activity in collagen-induced rheumatoid arthritis DBA/1J mouse model at 50 mg/kg, po after 22 days; format: functional, organism-based
[17] = test system: RAW264.7; assay: Antiinflammatory activity against mouse RAW264.7 cells assessed as reduction in LPS-induced Cox2 protein expression compound preincubated for 2 hrs followed by LPS stimulation after 22 hrs by Western blot analysis; format: functional, cell-based
[18] = test system: RAW264.7; assay: Antiinflammatory activity against mouse RAW264.7 cells assessed as reduction in LPS-induced iNOS mRNA expression compound preincubated for 2 hrs followed by LPS stimulation after 22 hrs by RT-PCR analysis; format: functional, cell-based
[19] = test system: RAW264.7; assay: Inhibition of LPS-induced JNK phosphorylation in mouse RAW264.7 cells at 5 to 50 uM preincubated for 2 hrs followed by LPS-stimulation after 22 hrs by Western blot analysis; format: cell-based
[20] = biological target: T1, NF-kappa-B inhibitor alpha (Mus musculus) (UniProt Q9Z1E3); assay: Inhibition of LPS-induced IKBalpha phosphorylation mouse RAW264.7 cells at 5 to 50 uM preincubated for 2 hrs followed by LPS-stimulation after 22 hrs by Western blot analysis; format: cell-based
T1 sequence (whole entry): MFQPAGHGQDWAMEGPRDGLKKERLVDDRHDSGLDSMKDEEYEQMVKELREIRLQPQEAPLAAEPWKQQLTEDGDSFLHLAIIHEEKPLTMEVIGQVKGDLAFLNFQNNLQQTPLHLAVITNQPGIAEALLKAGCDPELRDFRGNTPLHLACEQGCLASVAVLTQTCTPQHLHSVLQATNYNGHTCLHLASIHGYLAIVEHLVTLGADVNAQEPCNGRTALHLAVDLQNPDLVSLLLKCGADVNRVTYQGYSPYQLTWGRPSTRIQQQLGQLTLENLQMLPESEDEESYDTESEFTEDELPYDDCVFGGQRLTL

[21] = test system: RAW264.7; assay: Antiinflammatory activity against mouse RAW264.7 cells assessed as effect on LPS-induced TNF-alpha mRNA expression at 5 to 50 uM preincubated for 2 hrs followed by LPS stimulation after 22 hrs by RT-PCR analysis; format: functional, cell-based
[22] = test system: RAW264.7; assay: Antiinflammatory activity against mouse RAW264.7 cells assessed as reduction in LPS-induced IL-1beta mRNA expression compound preincubated for 2 hrs followed by LPS stimulation after 22 hrs by RT-PCR analysis; format: functional, cell-based
[23] = test system: RAW264.7; assay: Inhibition of LPS-induced ERK phosphorylation in mouse RAW264.7 cells at 5 to 50 uM preincubated for 2 hrs followed by LPS-stimulation after 22 hrs by Western blot analysis; format: cell-based
[24] = test system: Mus musculus; assay: Antiarthritic activity in collagen-induced rheumatoid arthritis DBA/1J mouse model assessed as reduction in forelimb swelling at 50 mg/kg, po; format: functional, organism-based

Chain of Transcription factor p65 (Mus musculus) (Q04207 whole entry): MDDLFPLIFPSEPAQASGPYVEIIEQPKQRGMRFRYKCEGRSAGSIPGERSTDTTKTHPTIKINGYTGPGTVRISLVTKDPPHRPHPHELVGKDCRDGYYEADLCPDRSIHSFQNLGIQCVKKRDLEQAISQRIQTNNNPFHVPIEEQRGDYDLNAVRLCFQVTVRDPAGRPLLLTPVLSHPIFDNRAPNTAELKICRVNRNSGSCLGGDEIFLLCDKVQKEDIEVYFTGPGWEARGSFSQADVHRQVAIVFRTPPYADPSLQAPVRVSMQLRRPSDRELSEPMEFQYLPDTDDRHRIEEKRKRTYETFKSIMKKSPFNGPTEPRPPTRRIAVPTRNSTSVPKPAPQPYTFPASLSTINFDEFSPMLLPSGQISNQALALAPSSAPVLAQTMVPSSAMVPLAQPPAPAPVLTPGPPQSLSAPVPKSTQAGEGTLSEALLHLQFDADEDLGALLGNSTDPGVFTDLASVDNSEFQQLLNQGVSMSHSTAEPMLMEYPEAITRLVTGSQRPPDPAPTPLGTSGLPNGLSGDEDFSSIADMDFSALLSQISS

Compound: C/C=C/c1ccc(O[C@@H]2O[C@H](CO)[C@@H](O)[C@H](O)[C@H]2O)cc1
IC50 [1]: > 50 µM | Activity [2]: Non-Toxic

Compound: C=CCc1ccc(O[C@@H]2O[C@H](CO)[C@H]3OC(=O)c4cc(O)c(O)c(O)c4-c4c(cc(O)c(O)c4O)C(=O)O[C@@H]3[C@H]2O)c(O)c1
IC50 [1]: 4.1 µM | Activity [2]: Non-Toxic

Compound: O=C(O)c1cc(O)c(O)c(O)c1 [GALLIC ACID]
IC50 [1]: > 50 µM | Activity [2]: Non-Toxic

Compound: O=c1cc(-c2ccc(O)c(O)c2)oc2cc(O)cc(O)c12 [LUTEOLIN]
IC50 [1]: 5.8 µM | Activity [2]: Non-Toxic

Compound: C/C=C/c1ccc(O[C@@H]2O[C@H](CO)[C@H]3OC(=O)c4cc(O)c(O)c(O)c4-c4c(cc(O)c(O)c4O)C(=O)O[C@@H]3[C@H]2O)cc1
IC50 [1]: 8.2 µM | Activity [2]: Non-Toxic

Compound: C/C=C/c1ccc(O[C@@H]2O[C@H](CO)[C@@H](O)[C@H](O)[C@H]2O)c(O)c1
IC50 [1]: 29.2 µM | Activity [2]: Non-Toxic

Compound: COc1ccc2c(c1)c(CC(=O)O)c(C)n2C(=O)c1ccc(Cl)cc1 [INDOMETHACIN]
inhibition [3]: Active | Activity [4]: Active | inhibition in vivo at 20 mg/kg [5]: 26.5%

Compound: C=CCc1ccc(O[C@@H]2O[C@H](CO)[C@@H](O)[C@H](O)[C@H]2O)cc1
IC50 [1]: > 50 µM | Activity [2]: Non-Toxic

Compound: C=CCc1ccc(O[C@@H]2O[C@H](CO[C@@H]3O[C@@H](C)[C@@H]4OC(=O)c5cc(O)c(O)c(O)c5-c5c(cc(O)c(O)c5O)C(=O)O[C@H]4[C@H]3O)[C@H]3OC(=O)c4cc(O)c(O)c(O)c4-c4c(cc(O)c(O)c4O)C(=O)O[C@@H]3[C@H]2O)cc1
inhibition [6]: Active | inhibition [7]: Active | Activity [8]: Dose-dependent effect | Activity [9]: Non-Toxic | inhibition [10]: inactive | Activity [11]: Dose-dependent effect | Activity [12]: Active | Activity [13]: Non-Toxic | Activity [14]: Active | inhibition in vivo at 50 mg/kg [15]: 26.9% | Activity [16]: Active | Activity [17]: Dose-dependent effect | Activity [18]: Dose-dependent effect | IC50 [1]: 1.9 µM | inhibition [19]: inactive | inhibition [20]: Active | Activity [21]: inactive | Activity [22]: Dose-dependent effect | Activity [2]: Non-Toxic | inhibition [23]: inactive | Activity [24]: Active

Now from value to compound, other results behind:

IC50 [1]: 3.9 µM
Compound: C=CCc1ccc(O[C@@H]2O[C@H](COC(=O)c3cc(O)c(O)c(O)c3)[C@H]3OC(=O)c4cc(O)c(O)c(O)c4-c4c(cc(O)c(O)c4O)C(=O)O[C@@H]3[C@H]2O)c(O)c1
Activity [2]: Non-Toxic

IC50 [1]: > 50 µM
Compound: C=CCc1ccc(O[C@@H]2O[C@H](CO)[C@@H](O)[C@H](O)[C@H]2O)c(O)c1
Activity [2]: Non-Toxic

IC50 [1]: 2.1 µM
Compound: C/C=C/c1ccc(O[C@@H]2O[C@H](CO)[C@H]3OC(=O)c4cc(O)c(O)c(O)c4-c4c(cc(O)c(O)c4O)C(=O)O[C@@H]3[C@H]2O)c(O)c1
Activity [2]: Non-Toxic

IC50 [1]: 4.3 µM
Compound: C=CCc1ccc(O[C@@H]2O[C@H](CO)[C@H]3OC(=O)c4cc(O)c(O)c(O)c4-c4c(cc(O)c(O)c4O)C(=O)O[C@@H]3[C@H]2O)cc1
Activity [2]: Non-Toxic

IC50 [1]: 3.6 µM
Compound: C/C=C/c1ccc(O[C@@H]2O[C@H](CO[C@@H]3O[C@@H](C)[C@@H]4OC(=O)c5cc(O)c(O)c(O)c5-c5c(cc(O)c(O)c5O)C(=O)O[C@H]4[C@H]3O)[C@H]3OC(=O)c4cc(O)c(O)c(O)c4-c4c(cc(O)c(O)c4O)C(=O)O[C@@H]3[C@H]2O)cc1
Activity [2]: Non-Toxic

IC50 [1]: > 50 µM
Compound: O=c1oc2c(O)c(O)cc3c(=O)oc4c(O)c(O)cc1c4c23 [ELLAGIC ACID]
Activity [2]: Non-Toxic
